ChEMBL document CHEMBL1155038, “Discovery of phosphonic diamide prodrugs and their use for the oral delivery of a series of fructose 1,6-bisphosphatase inhibitors” (J Med Chem, 2008)

How the values were obtained:
Rattus norvegicus [1] = assay: Reduction in blood glucose level in fasted Sprague-Dawley rat at <=10 mg/kg, iv relative to control; assay type: functional; design: scale not given: the % may be the effect or the level left
Rattus norvegicus [2] = assay: Bioavailability in fasted Sprague-Dawley rat assessed as urinary excretion of phosphoric acid at 10 to 50 mg/kg, po after 24 hrs by HPLC relative to iv dosed phosphoric acid; assay type: ADME, organism-based, Urine; conditions: in vivo
Rattus norvegicus [3] = assay: Reduction in blood glucose level in fasted Sprague-Dawley rat at 30 mg/kg, po relative to control; assay type: functional; design: scale not given: the % may be the effect or the level left
Rattus norvegicus [4] = assay: Reduction in blood glucose level in Sprague-Dawley rat assessed as time of maximum glucose lowering at 30 mg/kg, po; assay type: functional
Hepatocyte = assay: Drug uptake in cryopreserved human hepatocytes per million cells at 100 uM after 60 mins; assay type: ADME, cell-based; conditions: 1 h
[5] = Stability in human liver S9 fractions assessed as prodrug conversion per mg of protein; assay type: ADME, subcellular, S9 fraction

F (Rattus norvegicus [2]) | SMILES | further results
13% | CC(C)Cc1sc(N)nc1-c1ccc(P(=O)(OCOC(=O)OC(C)C)OCOC(=O)OC(C)C)o1 | –
30% | CCOC(=O)C(C)(C)NP(=O)(NC(C)(C)C(=O)OCC)c1ccc(-c2nc(N)sc2-c2ccccc2)o1 | Activity (Rattus norvegicus [3]): 25%; Time (Rattus norvegicus [4]): 2 h
4% | CCOC(=O)C(C)(C)NP(=O)(COCCn1cnc2c(N)ncnc21)NC(C)(C)C(=O)OCC | –
28% | CCOC(=O)C(C)NP(=O)(NC(C)C(=O)OCC)c1ccc(-c2nc(N)sc2CC(C)C)o1 (mixture of isomers) | Activity (Rattus norvegicus [3]): 52%; Time (Rattus norvegicus [4]): 2 h
6% | CCCSc1sc(N)nc1-c1ccc(P(=O)(N[C@H](C(=O)OCC)C(C)C)N[C@H](C(=O)OCC)C(C)C)o1 | –
6% | CCCSc1sc(N)nc1-c1ccc(P(=O)(N[C@@H](CC)C(=O)OCC)N[C@@H](CC)C(=O)OCC)o1 | –
30% | CCOC(=O)c1sc(N)nc1-c1ccc(P(=O)(N[C@@H](C)C(=O)OCC)N[C@@H](C)C(=O)OCC)o1 | Activity (Rattus norvegicus [3]): 12%; Time (Rattus norvegicus [4]): 3 h
23% | CC(C)OC(=O)[C@H](C)NP(=O)(N[C@@H](C)C(=O)OC(C)C)c1ccc(-c2nc(N)sc2-c2ccccc2)o1 | Activity (Rattus norvegicus [3]): 19%; Time (Rattus norvegicus [4]): 5 h
18% | CC(C)Cc1sc(N)nc1-c1ccc(P(=O)(N[C@@H](C)C(=O)OCC(C)(C)C)N[C@@H](C)C(=O)OCC(C)(C)C)o1 | –
7% | CCOC(=O)[C@@H](NP(=O)(N[C@H](C(=O)OCC)C(C)C)c1ccc(-c2nc(N)sc2CC(C)C)o1)C(C)C | –
16% | CCCOC(=O)[C@H](C)NP(=O)(N[C@@H](C)C(=O)OCCC)c1ccc(-c2nc(N)sc2CC(C)C)o1 | –
11% | CC(C)Cc1sc(N)nc1-c1ccc(P(=O)(N[C@@H](C)C(=O)OCc2ccccc2)N[C@@H](C)C(=O)OCc2ccccc2)o1 | –
22% | COC(=O)[C@@H](C)NP(=O)(N[C@H](C)C(=O)OC)c1ccc(-c2nc(N)sc2CC(C)C)o1 | Activity (Rattus norvegicus [3]): 26%; Time (Rattus norvegicus [4]): 2 h
11% | CC(C)Cc1sc(N)nc1-c1ccc(P(=O)(OCOC(=O)C(C)(C)C)OCOC(=O)C(C)(C)C)o1 | –
31% | CCOC(=O)[C@H](C)NP(=O)(N[C@@H](C)C(=O)OCC)c1ccc(-c2nc(N)sc2-c2ccccc2)o1 | –
9% | CC(C)Cc1sc(N)nc1-c1ccc(P(=O)(NCC(=O)OC(C)(C)C)NCC(=O)OC(C)(C)C)o1 | –
2% | CC(C)Cc1sc(N)nc1-c1ccc(P(=O)(O)O)o1 [MB-05032] | Activity (Rattus norvegicus [1]): >50%
3% | CCOC(=O)[C@H](Cc1ccccc1)NP(=O)(N[C@@H](Cc1ccccc1)C(=O)OCC)c1ccc(-c2nc(N)sc2CC(C)C)o1 | –
2% | CCCCOC(=O)[C@H](C)NP(=O)(N[C@@H](C)C(=O)OCCCC)c1ccc(-c2nc(N)sc2SCCC)o1 | –
31% | CCCSc1sc(N)nc1-c1ccc(P(=O)(NC(C)(C)C(=O)OCC)NC(C)(C)C(=O)OCC)o1 | Activity (Rattus norvegicus [3]): 51%; Time (Rattus norvegicus [4]): 2 h
5% | CCOC(=O)c1sc(N)nc1-c1ccc(P(=O)(N[C@@H](CC)C(=O)OCC)N[C@@H](CC)C(=O)OCC)o1 | –
6% | CCCSc1sc(N)nc1-c1ccc(P(=O)(N[C@@H](CCC)C(=O)OCC)N[C@@H](CCC)C(=O)OCC)o1 | –
1% | CCCSc1sc(N)nc1-c1ccc(P(=O)(NC2(C(=O)OCC)CCCCC2)NC2(C(=O)OCC)CCCCC2)o1 | –
37% | CCOC(=O)C(C)(C)NP(=O)(c1ccc(-c2nc(N)sc2CC(C)C)o1)N1CCCC1 (configuration not stated) | –
4% | CCCSc1sc(N)nc1-c1ccc(P(=O)(N[C@@H](C)C(=O)OC(C)(C)C)N[C@@H](C)C(=O)OC(C)(C)C)o1 | –
17% | CCCSc1sc(N)nc1-c1ccc(P(=O)(N[C@@H](C)C(=O)OC(C)C)N[C@@H](C)C(=O)OC(C)C)o1 | –

Further lines, the compound ahead of its results:

SMILES | F (Rattus norvegicus [2]) | further results
CCOC(=O)c1sc(N)nc1-c1ccc(P(=O)(O)O)o1 | – | Activity (Rattus norvegicus [1]): >50%
CCCSc1sc(N)nc1-c1ccc(P(=O)(NC2(C(=O)OCC)CCCC2)NC2(C(=O)OCC)CCCC2)o1 | 49% | –
CCOC(=O)c1sc(N)nc1-c1ccc(P(=O)(N[C@H](C(=O)OCC)C(C)C)N[C@H](C(=O)OCC)C(C)C)o1 | 6% | –
CC(C)COC(=O)[C@H](C)NP(=O)(N[C@@H](C)C(=O)OCC(C)C)c1ccc(-c2nc(N)sc2CC(C)C)o1 | 10% | –
CCCSc1sc(N)nc1-c1ccc(P(=O)(N[C@@H](COC(C)(C)C)C(=O)OC)N[C@@H](COC(C)(C)C)C(=O)OC)o1 | 9% | –
CCCSc1sc(N)nc1-c1ccc(P(=O)(N[C@@H](C)C(=O)OC2CCCCCC2)N[C@@H](C)C(=O)OC2CCCCCC2)o1 | 12% | –
CC(C)Cc1sc(N)nc1-c1ccc(P(=O)(N[C@@H](C)C(=O)OC(C)C)N[C@@H](C)C(=O)OC(C)C)o1 | 31% | Activity (Rattus norvegicus [3]): 63%; Time (Rattus norvegicus [4]): 2 h
CC(C)Cc1sc(N)nc1-c1ccc(P(=O)(NCC(=O)OCc2ccccc2)NCC(=O)OCc2ccccc2)o1 | 17% | –
CCOC(=O)[C@H](CC)NP(=O)(N[C@@H](CC)C(=O)OCC)c1ccc(-c2nc(N)sc2CC(C)C)o1 | 8% | –
CCOC(=O)c1sc(N)nc1-c1ccc(P(=O)(NC2(C(=O)OCC)CCCC2)NC2(C(=O)OCC)CCCC2)o1 | 5% | –
CCCSc1sc(N)nc1-c1ccc(P(=O)(O)O)o1 | – | Activity (Rattus norvegicus [1]): >50%
CCOC(=O)[C@H](CSCc1ccccc1)NP(=O)(N[C@@H](CSCc1ccccc1)C(=O)OCC)c1ccc(-c2nc(N)sc2CC(C)C)o1 | 5% | –
CCOC(=O)C1(NP(=O)(NC2(C(=O)OCC)CCCC2)c2ccc(-c3nc(N)sc3CC(C)C)o2)CCCC1 | 27% | Activity (Rattus norvegicus [3]): 20%; Time (Rattus norvegicus [4]): 2 h
CCCOC(=O)[C@H](C)NP(=O)(N[C@@H](C)C(=O)OCCC)c1ccc(-c2nc(N)sc2SCCC)o1 | 19% | –
COC(=O)CNP(=O)(COCCn1cnc2c(N)ncnc21)NCC(=O)OC | 2% | –
CCOC(=O)[C@H](C)NP(=O)(N[C@@H](C)C(=O)OCC)c1ccc(-c2nc(N)sc2SC)o1 | 23% | Activity (Rattus norvegicus [3]): 38%; Time (Rattus norvegicus [4]): 2 h
CCC[C@H](NP(=O)(N[C@@H](CCC)C(=O)OCC)c1ccc(-c2nc(N)sc2C(=O)OCC)o1)C(=O)OCC | 4% | –
CCOC(=O)CNP(=O)(NCC(=O)OCC)c1ccc(-c2nc(N)sc2CC(C)C)o1 | 26% | Activity (Rattus norvegicus [3]): 51%; Time (Rattus norvegicus [4]): 2 h
CCOC(=O)C(C)(C)NP(=O)(NC(C)(C)C(=O)OCC)c1ccc(-c2nc(N)sc2CC(C)C)o1 | 47% | Activity (Rattus norvegicus [3]): 45%; Time (Rattus norvegicus [4]): 2 h
CCCSc1sc(N)nc1-c1ccc(P(=O)(N[C@@H](C)C(=O)OCC)N[C@@H](C)C(=O)OCC)o1 | 17% | –
CCOC(=O)C(C)(C)NP(=O)(NC(C)(C)C(=O)OCC)c1ccc(-c2nc(N)sc2SC)o1 | 45% | Activity (Rattus norvegicus [3]): 80%; Time (Rattus norvegicus [4]): 2 h
Nc1nc(-c2ccc(P(=O)(O)O)o2)c(-c2ccccc2)s1 | – | Activity (Rattus norvegicus [1]): >50%
CCOC(=O)[C@H](C)NP(=O)(N[C@@H](C)C(=O)OCC)c1ccc(-c2nc(N)sc2CC(C)C)o1 | 22% | Activity (Rattus norvegicus [3]): 59%; Time (Rattus norvegicus [4]): 2 h; Drug uptake (Hepatocyte): 7 nmol; Stability [5]: 0.004 nM/min
CCOC(=O)C(C)(C)NP(=O)(c1ccc(-c2nc(N)sc2CC(C)C)o1)N1CCOCC1 (configuration not stated) | 32% | –
CCOC(=O)[C@H](CC(C)C)NP(=O)(N[C@@H](CC(C)C)C(=O)OCC)c1ccc(-c2nc(N)sc2CC(C)C)o1 | 3% | –
CC(C)CNP(=O)(NCC(C)C)c1ccc(-c2nc(N)sc2CC(C)C)o1 | 0% | –
CSc1sc(N)nc1-c1ccc(P(=O)(O)O)o1 | – | Activity (Rattus norvegicus [1]): >50%
